Experimental data from patent US20200339691A1, “PROTEINACEOUS MOLECULES AND USES THEREFOR” (priority 2018, published 2020).
Where a SMILES comes first, the peptide text is derived from it. The star is where a group is joined. Myristoyl = CCCCCCCCCCCCCC(=O)*

Tests used:
[1] = tested on: MDA-MB-231 cells; type: cell-based, human; settings: 50 μM peptide, 48 hours, n = 1;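 for COI, Live Single Cells (Cell Count): live means Hoechst-negative events among single cells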
Source text: (§1) Non-adherent cells were removed during the washing steps.

[2] = tested on: CD44^hiCD24^lo CSCs in MDA-MB-231 cells; assay: FACS analysis of CD44^hiCD24^lo cancer stem cells in MDA-MB-231 cells treated with P1 analogues; type: cell-based, human; settings: 50 μM peptide, 48 hours; for CD44^hiCD24^lo CSCs (%) / COI, Live Single CD44^hiCD24^lo CSCs (Cell Count): n = 1; for Average Inhibition of CSCs (%) / CD44^hiCD24^lo CSCs (%) Repeat 1 / CD44^hiCD24^lo CSCs (%) Repeat 2 / CD44^hiCD24^lo CSCs (%) Repeat 3: n = 3
Protocol: Analogues of P1 (Table 6) were designed and synthesized in accordance with the procedure of Example 5. The ability of these analogues to inhibit cancer stem cells was determined using FACS analysis on MDA-MB-231 cells, which constitutively contain approximately 90% CD44^hiCD24^lo cancer stem cells, treated with the peptides.
as §1

CCCCCCCCCCCCCC(=O)N[C@@H](CC(C)C)C(=O)N[C@H](C(=O)N[C@@H](Cc1ccccc1)C(=O)N[C@H](C(=O)N[C@@H](Cc1ccccc1)C(=O)N[C@@H](CCCNC(=N)N)C(=O)N[C@@H](CC(C)C)C(=O)N[C@@H](CCCNC(=N)N)C(=O)N[C@@H](CCCCN)C(=O)NCC(=O)N[C@@H](CCCNC(=N)N)C(=O)N[C@@H](CCC(=O)O)C(=O)N[C@@H](CCSC)C(=O)N[C@@H](CC(=O)O)C(=O)N[C@H](C(=O)N[C@@H](CCCCN)C(=O)N[C@@H](CCCCN)C(N)=O)C(C)C)[C@@H](C)CC)[C@@H](C)O [Peptide 2853832, Myristoyl-LTFIFRLRKGREMDVKK-NH2] (Myristoyl-LTFIFRLRKGREMDVKK-NH2)
COI (Cell Count) [1]: 674
COI, Live Single Cells (Cell Count) [1]: 444
COI, Single (Cell Count) [1]: 515
Total Cell Count [1]: 2068
Inhibition of CSCs (%) Repeat 1 [2]: 93.78%
Inhibition of CSCs (%) Repeat 2 [2]: 94.44%
Inhibition of CSCs (%) Repeat 3 [2]: 94.90%
CD44^hiCD24^lo CSCs (%) [2]: 2.48%
COI, Live Single CD44^hiCD24^lo CSCs (Cell Count) [2]: 11
Average Inhibition of CSCs (%) [2]: 94.37%
CD44^hiCD24^lo CSCs (%) Repeat 1 [2]: 5.58%
CD44^hiCD24^lo CSCs (%) Repeat 2 [2]: 4.99%
CD44^hiCD24^lo CSCs (%) Repeat 3 [2]: 4.58%

CCCCCCCCCCCCCC(=O)N[C@@H](CC(C)C)C(=O)N[C@H](C(=O)N[C@@H](Cc1ccccc1)C(=O)N[C@H](C(=O)N[C@@H](Cc1ccccc1)C(=O)N[C@@H](CCCNC(=N)N)C(=O)N[C@@H](CC(C)C)C(=O)N[C@@H](CCCNC(=N)N)C(=O)N[C@@H](CCCCN)C(=O)NCC(=O)N[C@H](C(=O)N[C@@H](CCSC)C(=O)N[C@@H](CCSC)C(=O)N[C@@H](CC(=O)O)C(=O)N[C@H](C(=O)N[C@@H](CCCCN)C(=O)N[C@@H](CCCCN)C(N)=O)C(C)C)C(C)C)[C@@H](C)CC)[C@@H](C)O [Peptide 2853831, Myristoyl-LTFIFRLRKGVMMDVKK-NH2] (Myristoyl-LTFIFRLRKGVMMDVKK-NH2)
COI (Cell Count) [1]: 377
COI, Live Single Cells (Cell Count) [1]: 93
COI, Single (Cell Count) [1]: 280
Total Cell Count [1]: 10000
Inhibition of CSCs (%) Repeat 1 [2]: 79.77%
Inhibition of CSCs (%) Repeat 2 [2]: 84.29%
Inhibition of CSCs (%) Repeat 3 [2]: 89.06%
CD44^hiCD24^lo CSCs (%) [2]: 11.83%
COI, Live Single CD44^hiCD24^lo CSCs (Cell Count) [2]: 11
Average Inhibition of CSCs (%) [2]: 84.37%
CD44^hiCD24^lo CSCs (%) Repeat 1 [2]: 18.13%
CD44^hiCD24^lo CSCs (%) Repeat 2 [2]: 14.09%
CD44^hiCD24^lo CSCs (%) Repeat 3 [2]: 9.82%

CCCCCCCCCCCCCC(=O)N[C@@H](CC(C)C)C(=O)N[C@H](C(=O)N[C@H](C(=O)N[C@H](C(=O)N[C@@H](Cc1ccccc1)C(=O)N[C@@H](CCCNC(=N)N)C(=O)N[C@@H](CC(C)C)C(=O)N[C@@H](CCCNC(=N)N)C(=O)N[C@@H](CCCCN)C(=O)NCC(=O)N[C@@H](CCCNC(=N)N)C(=O)N[C@@H](CCSC)C(=O)N[C@@H](CCSC)C(=O)N[C@@H](CC(=O)O)C(=O)N[C@H](C(=O)N[C@@H](CCCCN)C(=O)N[C@@H](CCCCN)C(N)=O)C(C)C)[C@@H](C)CC)C(C)C)[C@@H](C)O [Peptide 2853809, Myristoyl-LTVIFRLRKGRMMDVKK-NH2] (Myristoyl-LTVIFRLRKGRMMDVKK-NH2)
COI (Cell Count) [1]: 1736
COI, Live Single Cells (Cell Count) [1]: 1508
COI, Single (Cell Count) [1]: 1560
Total Cell Count [1]: 3548
Inhibition of CSCs (%) Repeat 1 [2]: 49.62%
Inhibition of CSCs (%) Repeat 2 [2]: 53.48%
Inhibition of CSCs (%) Repeat 3 [2]: 60.55%
CD44^hiCD24^lo CSCs (%) [2]: 35.61%
COI, Live Single CD44^hiCD24^lo CSCs (Cell Count) [2]: 537
Average Inhibition of CSCs (%) [2]: 54.55%
CD44^hiCD24^lo CSCs (%) Repeat 1 [2]: 45.15%
CD44^hiCD24^lo CSCs (%) Repeat 2 [2]: 41.73%
CD44^hiCD24^lo CSCs (%) Repeat 3 [2]: 35.40%

CCCCCCCCCCCCCC(=O)N[C@@H](CC(C)C)C(=O)N[C@H](C(=O)N[C@@H](Cc1ccccc1)C(=O)N[C@H](C(=O)N[C@@H](Cc1c[nH]cn1)C(=O)N[C@@H](CCCNC(=N)N)C(=O)N[C@@H](CC(C)C)C(=O)N[C@@H](CCCNC(=N)N)C(=O)N[C@@H](CCCCN)C(=O)NCC(=O)N[C@@H](CCCNC(=N)N)C(=O)N[C@@H](CCSC)C(=O)N[C@@H](CCSC)C(=O)N[C@@H](CC(=O)O)C(=O)N[C@H](C(=O)N[C@@H](CCCCN)C(=O)N[C@@H](CCCCN)C(N)=O)C(C)C)[C@@H](C)CC)[C@@H](C)O [Peptide 2853815, Myristoyl-LTFIHRLRKGRMMDVKK-NH2] (Myristoyl-LTFIHRLRKGRMMDVKK-NH2)
COI (Cell Count) [1]: 320
COI, Live Single Cells (Cell Count) [1]: 279
COI, Single (Cell Count) [1]: 300
Total Cell Count [1]: 1114
Inhibition of CSCs (%) Repeat 1 [2]: 6.67%
Inhibition of CSCs (%) Repeat 2 [2]: 7.21%
Inhibition of CSCs (%) Repeat 3 [2]: 8.72%
CD44^hiCD24^lo CSCs (%) [2]: 71.33%
COI, Live Single CD44^hiCD24^lo CSCs (Cell Count) [2]: 199
Average Inhibition of CSCs (%) [2]: 7.53%
CD44^hiCD24^lo CSCs (%) Repeat 1 [2]: 83.65%
CD44^hiCD24^lo CSCs (%) Repeat 2 [2]: 83.25%
CD44^hiCD24^lo CSCs (%) Repeat 3 [2]: 81.91%

CCCCCCCCCCCCCC(=O)N[C@@H](CC(C)C)C(=O)N[C@H](C(=O)N[C@@H](Cc1ccccc1)C(=O)N[C@H](C(=O)N[C@@H](Cc1ccccc1)C(=O)N[C@@H](CCCNC(=N)N)C(=O)N[C@@H](CC(C)C)C(=O)N[C@@H](CCCNC(=N)N)C(=O)N[C@@H](CCCCN)C(=O)N[C@@H](CCCCN)C(=O)N[C@@H](CCCNC(=N)N)C(=O)N[C@@H](CCSC)C(=O)N[C@@H](CCSC)C(=O)N[C@@H](CC(=O)O)C(=O)N[C@H](C(=O)N[C@@H](CCCCN)C(=O)N[C@@H](CCCCN)C(N)=O)C(C)C)[C@@H](C)CC)[C@@H](C)O [Peptide 2853828, Myristoyl-LTFIFRLRKKRMMDVKK-NH2] (Myristoyl-LTFIFRLRKKRMMDVKK-NH2)
COI (Cell Count) [1]: 182
COI, Live Single Cells (Cell Count) [1]: 28
COI, Single (Cell Count) [1]: 146
Total Cell Count [1]: 3309
Inhibition of CSCs (%) Repeat 1 [2]: 89.25%
Inhibition of CSCs (%) Repeat 2 [2]: 91.29%
Inhibition of CSCs (%) Repeat 3 [2]: 90.17%
CD44^hiCD24^lo CSCs (%) [2]: 10.71%
COI, Live Single CD44^hiCD24^lo CSCs (Cell Count) [2]: 3
Average Inhibition of CSCs (%) [2]: 90.23%
CD44^hiCD24^lo CSCs (%) Repeat 1 [2]: 9.64%
CD44^hiCD24^lo CSCs (%) Repeat 2 [2]: 7.81%
CD44^hiCD24^lo CSCs (%) Repeat 3 [2]: 8.82%

CCCCCCCCCCCCCC(=O)N[C@@H](CC(C)C)C(=O)N[C@H](C(=O)N[C@@H](Cc1ccccc1)C(=O)N[C@H](C(=O)N[C@@H](Cc1ccccc1)C(=O)N[C@H](C(=O)N[C@@H](CC(C)C)C(=O)N[C@@H](CCCNC(=N)N)C(=O)N[C@@H](CCCCN)C(=O)NCC(=O)N[C@@H](CCCNC(=N)N)C(=O)N[C@@H](CCSC)C(=O)N[C@@H](CCSC)C(=O)N[C@@H](CC(=O)O)C(=O)N[C@H](C(=O)N[C@@H](CCCCN)C(=O)N[C@@H](CCCCN)C(N)=O)C(C)C)C(C)C)[C@@H](C)CC)[C@@H](C)O [Peptide 2853818, Myristoyl-LTFIFVLRKGRMMDVKK-NH2] (Myristoyl-LTFIFVLRKGRMMDVKK-NH2)
COI (Cell Count) [1]: 33
COI, Live Single Cells (Cell Count) [1]: 20
COI, Single (Cell Count) [1]: 25
Total Cell Count [1]: 275
Inhibition of CSCs (%) Repeat 1 [2]: 88.46%
Inhibition of CSCs (%) Repeat 2 [2]: 97.94%
Inhibition of CSCs (%) Repeat 3 [2]: 93.25%
CD44^hiCD24^lo CSCs (%) [2]: 25.00%
COI, Live Single CD44^hiCD24^lo CSCs (Cell Count) [2]: 5
Average Inhibition of CSCs (%) [2]: 93.21%
CD44^hiCD24^lo CSCs (%) Repeat 1 [2]: 10.34%
CD44^hiCD24^lo CSCs (%) Repeat 2 [2]: 1.85%
CD44^hiCD24^lo CSCs (%) Repeat 3 [2]: 6.06%

CCCCCCCCCCCCCC(=O)N[C@H](C(=O)N[C@@H](Cc1ccccc1)C(=O)N[C@H](C(=O)N[C@@H](Cc1ccccc1)C(=O)N[C@@H](CCCNC(=N)N)C(=O)N[C@@H](CC(C)C)C(=O)N[C@@H](CCCNC(=N)N)C(=O)N[C@@H](CCCCN)C(=O)NCC(=O)N[C@@H](CCCNC(=N)N)C(=O)N[C@@H](CCSC)C(=O)N[C@@H](CCSC)C(=O)N[C@@H](CC(=O)O)C(=O)N[C@H](C(=O)N[C@@H](C)C(=O)N[C@@H](CCCCN)C(N)=O)C(C)C)[C@@H](C)CC)[C@@H](C)O [Peptide 2815316, Myristoyl-TFIFRLRKGRMMDVAK-NH2] (Myristoyl-TFIFRLRKGRMMDVAK-NH2)
COI (Cell Count) [1]: 22
COI, Live Single Cells (Cell Count) [1]: 4
COI, Single (Cell Count) [1]: 20
Total Cell Count [1]: 10777
Inhibition of CSCs (%) Repeat 1 [2]: 40.88%
Inhibition of CSCs (%) Repeat 2 [2]: 45.01%
Inhibition of CSCs (%) Repeat 3 [2]: 45.00%
CD44^hiCD24^lo CSCs (%) [2]: 50.00%
COI, Live Single CD44^hiCD24^lo CSCs (Cell Count) [2]: 2
Average Inhibition of CSCs (%) [2]: 43.63%
CD44^hiCD24^lo CSCs (%) Repeat 1 [2]: 52.99%
CD44^hiCD24^lo CSCs (%) Repeat 2 [2]: 49.33%
CD44^hiCD24^lo CSCs (%) Repeat 3 [2]: 49.35%
